pIC50: −log10 of the molar value. Where two headings read alike, the source gives them in different places.
Target: T1, Human Factor D (Homo sapiens, UniProt P00746)
T1 construct: purified from human serum; purchased Complement Technology, Inc; host or cells: human serum (natural protein, not recombinant)
Test: Human Factor D Assay
Format: biochemical
Conditions: Human Factor D 80 nM, substrate Z-L-Lys-SBzl, read-out: IC50 (Stars)
Procedure, shortened: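 Serum-purified human factor D (80 nM final) preincubated 5 min at room temperature with test compound in 50 mM Tris, 1M NaCl, pH 7.5. Z-L-Lys-SBzl substrate and DTNB then added, each at 100 μM final. IC50 from nonlinear regression of reaction rate against compound concentration.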

T1 sequence (P00746 26-253): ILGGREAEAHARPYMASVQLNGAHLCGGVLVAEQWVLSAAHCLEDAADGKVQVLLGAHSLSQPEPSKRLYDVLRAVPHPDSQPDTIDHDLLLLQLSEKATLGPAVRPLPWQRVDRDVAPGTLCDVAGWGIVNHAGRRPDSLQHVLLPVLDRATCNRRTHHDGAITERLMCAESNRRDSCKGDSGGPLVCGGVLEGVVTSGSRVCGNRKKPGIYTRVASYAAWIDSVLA

Row | pIC50 (Table 2) | pIC50 (assay of Example 3) | Compound
1 | > 6.00 |  | CC(=O)c1nn(CC(=O)N2[C@H](C(=O)NC(C)Cc3ccoc3)C[C@@]3(C)C[C@@H]23)c2c(C)cc(-c3cnc(C)nc3)cc12 (stereo partly drawn) [Compound 181, (1R,3S,5R)-2-{2-[3-acetyl-7-methyl-5-(2-methylpyrimidin-5-yl)indazol-1-yl]acetyl}-N-[1-(furan-3-yl)propan-2-yl]-5-methyl-2-azabicyclo[3.1.0]hexane-3-carboxamide]
2 | > 6.00 |  | CC(=O)c1cn(CC(=O)N2[C@H](C(=O)Nc3nc(C(F)(F)F)ccc3C)C[C@@]3(C)C[C@@H]23)c2c(CF)cc(-c3cnc(C)nc3)cc12 [Compound 239, (1R,3S,5R)-2-(2-(3-acetyl-7-(fluoromethyl)-5-(2-methylpyrimidin-5-yl)-1H-indol-1-yl)acetyl)-5-methyl-N-(3-methyl-6-(trifluoromethyl)pyridin-2-yl)-2-azabicyclo[3.1.0]hexane-3-carboxamide]
3 | > 6.00 |  | CC(=O)c1cn(CC(=O)N2[C@H](C(=O)Nc3nc(C(F)(F)F)ccc3C)C[C@@]3(C)C[C@@H]23)c2c(C)cc(-c3cnc4cc(CO)nn4c3)cc12 [Compound 226, (1R,3S,5R)-2-(2-(3-acetyl-5-(2-(hydroxymethyl)pyrazolo[1,5-a]pyrimidin-6-yl)-7-methyl-1H-indol-1-yl)acetyl)-5-methyl-N-(3-methyl-6-(trifluoromethyl)pyridin-2-yl)-2-azabicyclo[3.1.0]hexane-3-carboxamide]
4 | > 6.00 |  | CC(=O)c1nn(CC(=O)N2[C@H](C(=O)N[C@@H]3CCCCC34OCCO4)C[C@@]3(C)C[C@@H]23)c2c(C)cc(-c3cnc(C)nc3)cc12 (single isomer, unassigned) [Compound 136]
5 | > 6.00 |  | CC(=O)c1cn(CC(=O)N2[C@H](C(=O)Nc3nc(C(F)(F)F)ccc3C)C[C@@]3(C)C[C@@H]23)c2c(C)cc(-c3cnc4cc(F)nn4c3)cc12 [Compound 225, (1R,3S,5R)-2-(2-(3-acetyl-5-(2-fluoropyrazolo[1,5-a]pyrimidin-6-yl)-7-methyl-1H-indol-1-yl)acetyl)-5-methyl-N-(3-methyl-6-(trifluoromethyl)pyridin-2-yl)-2-azabicyclo[3.1.0]hexane-3-carboxamide]
6 | > 6.00 |  | CC(=O)c1nn(CC(=O)N2[C@H](C(=O)Nc3nc(Br)ccc3C)C[C@@]3(C)C[C@@H]23)c2c(C)cc(-c3cnc(C(C)(C)O)nc3)cc12 [Compound 41, (1R,3S,5R)-2-(2-(3-acetyl-5-(2-(2-hydroxypropan-2-yl)pyrimidin-5-yl)-7-methyl-1H-indazol-1-yl)acetyl)-N-(6-bromo-3-methylpyridin-2-yl)-5-methyl-2-azabicyclo[3.1.0]hexane-3-carboxamide]
7 | > 6.00 |  | CC(=O)c1nn(CC(=O)N2[C@H](C(=O)NC(C)Cc3ccccc3F)C[C@@]3(C)C[C@@H]23)c2c(C)cc(-c3cnc(C)nc3)cc12 (stereo partly drawn) [Compound 186, (1R,3S,5R)-2-{2-[3-acetyl-7-methyl-5-(2-methylpyrimidin-5-yl)indazol-1-yl]acetyl}-N-[1-(2-fluorophenyl)propan-2-yl]-5-methyl-2-azabicyclo[3.1.0]hexane-3-carboxamide]
8 | > 6.00 |  | CC(=O)c1cn(CC(=O)N2[C@H](C(=O)Nc3nc(C(F)(F)F)ccc3C)C[C@@]3(C)C[C@@H]23)c2c(C)cc(-c3cnc4c(O)c(C)nn4c3)cc12 [Compound 231, (1R,3S,5R)-2-(2-(3-acetyl-5-(3-hydroxy-2-methylpyrazolo[1,5-a]pyrimidin-6-yl)-7-methyl-1H-indol-1-yl)acetyl)-5-methyl-N-(3-methyl-6-(trifluoromethyl)pyridin-2-yl)-2-azabicyclo[3.1.0]hexane-3-carboxamide]
9 | > 6.00 |  | CC(=O)c1nn(CC(=O)N2C[C@H]3C[C@H]3[C@H]2C(=O)Nc2nc(Br)ccc2Cl)c2c(C)cc(-c3cnc(CO)nc3)cc12 [Compound 75, (1R,2S,5S)-3-(2-(3-acetyl-5-(2-(hydroxymethyl)pyrimidin-5-yl)-7-methyl-11H-indazol-1-yl)acetyl)-N-(6-bromo-3-chloropyridin-2-yl)-3-azabicyclo[3.1.0]hexane-2-carboxamide]
10 |  | > 6.00 | CC(=O)c1nn(CC(=O)N2[C@H](C(=O)N[C@H](C)C(C)C)C[C@@]3(C)C[C@@H]23)c2ccc(-c3cnc(C)nc3)cc12 [Compound 14, (1R,3S,5R)-2-(2-(3-Acetyl-5-(2-methylpyrimidin-5-yl)-1H-indazol-1-yl)acetyl)-5-methyl-N—((R)-3-methylbutan-2-yl)-2-azabicyclo[3.1.0]hexane-3-carboxamide]
11 | > 6.00 |  | CC(=O)c1nn(CC(=O)N2[C@H](C(=O)NC(C)Cc3ccsc3)C[C@@]3(C)C[C@@H]23)c2c(C)cc(-c3cnc(C)nc3)cc12 (stereo partly drawn) [Compound 183, (1R,3S,5R)-2-{2-[3-acetyl-7-methyl-5-(2-methylpyrimidin-5-yl)indazol-1-yl]acetyl}-5-methyl-N-[1-(thiophen-3-yl)propan-2-yl]-2-azabicyclo[3.1.0]hexane-3-carboxamide]
12 | > 6.00 |  | CC(=O)c1nn(CC(=O)N2[C@H](C(=O)Nc3cncc(Br)n3)C[C@@]3(C)C[C@@H]23)c2ccc(-c3cnc(CO)nc3)cc12 [Compound 64, (1R,3S,5R)-2-(2-(3-acetyl-5-(2-(hydroxymethyl)pyrimidin-5-yl)-1H-indazol-1-yl)acetyl)-N-(6-bromopyrazin-2-yl)-5-methyl-2-azabicyclo[3.1.0]hexane-3-carboxamide]
13 | > 6.00 |  | CC(=O)c1cn(CC(=O)N2[C@H](C(=O)Nc3nc(Br)ccc3C)C[C@@]3(C)C[C@@H]23)c2c(C)c(F)c(-c3cnc(C)nc3)cc12 [Compound 240, (1R,3S,5R)-2-(2-(3-acetyl-6-fluoro-7-methyl-5-(2-methylpyrimidin-5-yl)-1H-indol-1-yl)acetyl)-N-(6-bromo-3-methylpyridin-2-yl)-5-methyl-2-azabicyclo[3.1.0]hexane-3-carboxamide]
14 | > 6.00 |  | CC(=O)c1cn(CC(=O)N2[C@H](C(=O)Nc3nc(Br)ccc3C)C[C@@]3(C)C[C@@H]23)c2c(C)cc(-c3cnc4cc(C)nn4c3)cc12 [Compound 198, (1R,3S,5R)-2-(2-(3-acetyl-7-methyl-5-(2-methylpyrazolo[1,5-a]pyrimidin-6-yl)-1H-indol-1-yl)acetyl)-N-(6-bromo-3-methylpyridin-2-yl)-5-methyl-2-azabicyclo[3.1.0]hexane-3-carboxamide]
15 | > 6.00 |  | CC(=O)c1cn(CC(=O)N2[C@H](C(=O)Nc3cncc(Br)n3)C[C@@]3(C)C[C@@H]23)c2c(C)cc(-c3cnc4cc(C)nn4c3)cc12 [Compound 210, (1R,3S,5R)-2-(2-(3-acetyl-7-methyl-5-(2-methylpyrazolo[1,5-a]pyrimidin-6-yl)-1H-indol-1-yl)acetyl)-N-(6-bromopyrazin-2-yl)-5-methyl-2-azabicyclo[3.1.0]hexane-3-carboxamide]
16 | > 6.00 |  | CC(=O)c1nn(CC(=O)N2[C@H](C(=O)Nc3nc(Br)ccc3C)C[C@@]3(C)C[C@@H]23)c2c(C)cc(-c3cnc(C(C)O)cn3)cc12 (stereo partly drawn) [Compound 176, (1R,3S,5R)-2-(2-(3-acetyl-5-(5-(1-hydroxyethyl)pyrazin-2-yl)-7-methyl-1H-indazol-1-yl)acetyl)-N-(6-bromo-3-methylpyridin-2-yl)-5-methyl-2-azabicyclo[3.1.0]hexane-3-carboxamide]
17 |  | > 6.00 | CC(=O)c1nn(CC(=O)N2[C@H](C(=O)Nc3cccc(C(F)(F)F)c3F)C[C@@]3(C)C[C@@H]23)c2cnc(-c3cnc(C)nc3)cc12 [Compound 23, (1R,3S,5R)-2-(2-(3-Acetyl-5-(2-methylpyrimidin-5-yl)-1H-pyrazolo[3,4-C]pyridine-1-yl)acetly)-N-(2-fluoro-3-(trifluoromethyl)phenyl)-5-methyl-2-azabicyclo[3.1.0]hexane-3-carboxamide]
18 | > 6.00 |  | COC(=O)c1ncc(-c2cc(C)c3c(c2)c(C(C)=O)nn3CC(=O)N2[C@H](C(=O)Nc3cncc(Br)n3)C[C@@]3(C)C[C@@H]23)cn1 [Compound 42, Methyl 5-(3-acetyl-1-(2-((1R,3S,5R)-3-((6-bromopyrazin-2-yl)carbamoyl)-5-methyl-2-azabicyclo[3.1.0]hexan-2-yl)-2-oxoethyl)-7-methyl-1H-indazol-5-yl)pyrimidine-2-carboxylate]
19 | > 6.00 |  | Cc1ncc(-c2cc3c(C(N)=O)nn(CC(=O)N4C(C(=O)Nc5nc(Br)ccc5Cl)CC5(C)CC45)c3c(C)n2)cn1 (stereo not shown) [Compound 91, 1-{2-[3-(6-Bromo-3-chloro-pyridin-2-ylcarbamoyl)-5-methyl-2-aza-bicyclo[3.1.0]hex-2-yl]-2-oxo-ethyl}-7-methyl-5-(2-methyl-pyrimidin-5-yl)-1H-pyrazolo[3,4-c]pyridine-3-carboxylic acid amide]
20 | > 6.00 |  | CC(=O)c1cn(CC(=O)N2[C@H](C(=O)Nc3nc(Br)c(F)cc3C)C[C@@]3(C)C[C@@H]23)c2c(C)cc(-c3cnc(C)nc3)cc12 [Compound 144, (1R,3S,5R)-2-(2-(3-acetyl-7-methyl-5-(2-methylpyrimidin-5-yl)-1H-indol-1-yl)acetyl)-N-(6-bromo-5-fluoro-3-methylpyridin-2-yl)-5-methyl-2-azabicyclo[3.1.0]hexane-3-carboxamide]

Row | Compound | pIC50 (Table 2) | pIC50 (assay of Example 3)
21 | CC(=O)c1nn(CC(=O)N2[C@H](C(=O)NCC3(C)CC3)C[C@@]3(C)C[C@@H]23)c2c(C)cc(-c3cnc(C)nc3)cc12 [Compound 89, (1R,3S,5R)-2-{2-[3-acetyl-7-methyl-5-(2-methylpyrimidin-5-yl)indazol-1-yl]acetyl}-5-methyl-N-[(1-methylcyclopropyl)methyl]-2-azabicyclo[3.1.0]hexane-3-carboxamide] | > 6.00 | 
22 | CC(=O)c1nn(CC(=O)N2[C@H](C(=O)NCCc3ccccc3F)C[C@@]3(C)C[C@@H]23)c2c(C)cc(-c3cnc(C)nc3)cc12 [Compound 1, (1R,3S,5R)-2-(2-(3-Acetyl-7-methyl-5-(2-methylpyrimidin-5-yl)-1H-indazol-1-yl)acetyl)-N-(2-fluorophenethyl)-5-methyl-2-azabicyclo[3.1.0]hexane-3-carboxamide] |  | > 6.00

— patent US20230022157A1 (Achillion Pharmaceuticals, Inc., priority 2018, published 2023)
